± gives the uncertainty stated by the source.
Assay: xn = mol fraction of the nth substance listed

COCCOCCOCCOC + CO
viscosity [mPa·s], 100 kPa
Settings	293.15 K	298.15 K	303.15 K
x2 = 0.0543	2.129 ± 0.088	1.922 ± 0.08	1.733 ± 0.072
x2 = 0.0988	2.083 ± 0.086	1.882 ± 0.078	1.696 ± 0.07
x2 = 0.1978	1.982 ± 0.082	1.795 ± 0.074	1.621 ± 0.067
x2 = 0.3013	1.864 ± 0.077	1.689 ± 0.069	1.527 ± 0.063
x2 = 0.3994	1.737 ± 0.071	1.58 ± 0.065	1.434 ± 0.059
x2 = 0.5183	1.57 ± 0.064	1.433 ± 0.058	1.302 ± 0.053
x2 = 0.5962	1.443 ± 0.059	1.321 ± 0.054	1.203 ± 0.049
x2 = 0.6983	1.26 ± 0.051	1.158 ± 0.047	1.058 ± 0.043
x2 = 0.7969	1.055 ± 0.043	0.975 ± 0.04	0.894 ± 0.036
x2 = 0.8472	0.944 ± 0.038	0.875 ± 0.036	0.804 ± 0.033
x2 = 0.8993	0.825 ± 0.033	0.767 ± 0.031	0.705 ± 0.029
x2 = 0.9489	0.711 ± 0.029	0.662 ± 0.027	0.608 ± 0.025

CCNCC + CCC(C)=O
298.15 K, 101 kPa
Settings	viscosity [mPa·s]
x2 = 0.1013	0.273 ± 0.002
x2 = 0.2023	0.279 ± 0.002
x2 = 0.303	0.283 ± 0.002
x2 = 0.4034	0.287 ± 0.002
x2 = 0.5035	0.293 ± 0.002
x2 = 0.6034	0.3 ± 0.003
x2 = 0.703	0.313 ± 0.003
x2 = 0.8023	0.331 ± 0.003
x2 = 0.9013	0.353 ± 0.003

CC(C)(C)O + CS(C)=O
viscosity [mPa·s], 101.3 kPa
Settings	x2 = 0.095	x2 = 0.1916	x2 = 0.289	x2 = 0.3874	x2 = 0.5132	x2 = 0.5873	x2 = 0.6888	x2 = 0.7916	x2 = 0.8951
298.15 K	3.564 ± 0.24	2.968 ± 0.2	2.53 ± 0.17	2.269 ± 0.15	2.07 ± 0.14	2.005 ± 0.14	1.917 ± 0.13	1.902 ± 0.13	1.971 ± 0.14
303.15 K	2.644 ± 0.18	2.111 ± 0.14	1.808 ± 0.13	1.608 ± 0.11	1.479 ± 0.11	1.459 ± 0.1	1.531 ± 0.11	1.568 ± 0.11	1.719 ± 0.12

CCCC[n+]1ccn(C)c1.[Cl][Al-]([Cl])([Cl])[Cl] + Cc1ccccc1
101 kPa, x2 = 0.37
Settings	viscosity [mPa·s]
293.15 K	18.2 ± 0.8
298.15 K	16.6 ± 0.7
303.15 K	14.6 ± 0.6
308.15 K	13.1 ± 0.6
313.15 K	11.6 ± 0.5
318.15 K	10.5 ± 0.5
323.15 K	9.6 ± 0.4

CCCCOC(=O)c1ccccc1 + CCCCCCCC
101 kPa
Settings	viscosity [mPa·s]
298.15 K, x2 = 0.0819	2.313 ± 0.073
298.15 K, x2 = 0.1257	2.139 ± 0.067
298.15 K, x2 = 0.1681	1.973 ± 0.062
298.15 K, x2 = 0.2263	1.771 ± 0.056
298.15 K, x2 = 0.2749	1.61 ± 0.051
298.15 K, x2 = 0.3195	1.476 ± 0.047
298.15 K, x2 = 0.3719	1.339 ± 0.042
298.15 K, x2 = 0.4121	1.246 ± 0.039
298.15 K, x2 = 0.473	1.117 ± 0.035
298.15 K, x2 = 0.5153	1.038 ± 0.033
298.15 K, x2 = 0.5596	0.971 ± 0.031
298.15 K, x2 = 0.6051	0.9 ± 0.029
298.15 K, x2 = 0.6559	0.827 ± 0.026
298.15 K, x2 = 0.7053	0.772 ± 0.025
298.15 K, x2 = 0.7427	0.729 ± 0.023
298.15 K, x2 = 0.794	0.674 ± 0.021
298.15 K, x2 = 0.8349	0.635 ± 0.02
298.15 K, x2 = 0.8859	0.591 ± 0.019
298.15 K, x2 = 0.9357	0.552 ± 0.018
308.15 K, x2 = 0.0945	1.866 ± 0.059
308.15 K, x2 = 0.1325	1.737 ± 0.055
308.15 K, x2 = 0.1853	1.579 ± 0.05
308.15 K, x2 = 0.2276	1.465 ± 0.046
308.15 K, x2 = 0.2687	1.364 ± 0.043
308.15 K, x2 = 0.3288	1.233 ± 0.039
308.15 K, x2 = 0.3769	1.139 ± 0.036
308.15 K, x2 = 0.4139	1.073 ± 0.034
308.15 K, x2 = 0.4741	0.975 ± 0.031
308.15 K, x2 = 0.5134	0.916 ± 0.029
308.15 K, x2 = 0.5651	0.848 ± 0.027
308.15 K, x2 = 0.6054	0.797 ± 0.025
308.15 K, x2 = 0.6525	0.743 ± 0.024
308.15 K, x2 = 0.7052	0.688 ± 0.022
308.15 K, x2 = 0.7478	0.649 ± 0.021
308.15 K, x2 = 0.7925	0.61 ± 0.019
308.15 K, x2 = 0.8351	0.577 ± 0.018
308.15 K, x2 = 0.8734	0.549 ± 0.018
308.15 K, x2 = 0.9291	0.514 ± 0.016
318.15 K, x2 = 0.0361	1.714 ± 0.054
318.15 K, x2 = 0.0929	1.554 ± 0.049
318.15 K, x2 = 0.1407	1.438 ± 0.045
318.15 K, x2 = 0.196	1.309 ± 0.041
318.15 K, x2 = 0.2419	1.215 ± 0.038
318.15 K, x2 = 0.2984	1.108 ± 0.035
318.15 K, x2 = 0.346	1.027 ± 0.032
318.15 K, x2 = 0.4006	0.943 ± 0.03
318.15 K, x2 = 0.4467	0.878 ± 0.028
318.15 K, x2 = 0.499	0.812 ± 0.026
318.15 K, x2 = 0.5446	0.759 ± 0.024
318.15 K, x2 = 0.5955	0.706 ± 0.022
318.15 K, x2 = 0.6382	0.665 ± 0.021
318.15 K, x2 = 0.6905	0.619 ± 0.02
318.15 K, x2 = 0.7358	0.584 ± 0.019
318.15 K, x2 = 0.7849	0.546 ± 0.017
318.15 K, x2 = 0.8274	0.518 ± 0.017
318.15 K, x2 = 0.8768	0.488 ± 0.016
318.15 K, x2 = 0.9193	0.464 ± 0.015

CN(CCO)CCO + CCO
313 K, 101.33 kPa
Settings	viscosity [mPa·s]
x1 = 0.0079	0.832 ± 0.006
x1 = 0.02	0.888 ± 0.006
x1 = 0.0434	0.998 ± 0.007
x1 = 0.216	2.132 ± 0.017
x1 = 0.2986	2.967 ± 0.024
x1 = 0.3977	4.196 ± 0.034
x1 = 0.5237	7.05 ± 0.053
x1 = 0.5978	9.003 ± 0.066
x1 = 0.7028	12.92 ± 0.093
x1 = 0.8085	17.79 ± 0.13
x1 = 0.908	23.88 ± 0.17

CCNCC + CCCC(C)O
viscosity [mPa·s], 100 kPa
Settings	293.15 K	298.15 K	303.15 K	308.15 K	313.15 K	318.15 K	323.15 K
x1 = 0.0218	3.75 ± 0.08	3.12 ± 0.07	2.6 ± 0.06	2.18 ± 0.05	1.85 ± 0.04	1.59 ± 0.03	1.37 ± 0.03
x1 = 0.081	3.2 ± 0.07	2.7 ± 0.06	2.28 ± 0.05	1.92 ± 0.04	1.66 ± 0.04	1.44 ± 0.03	1.25 ± 0.03
x1 = 0.16	2.57 ± 0.05	2.207 ± 0.047	1.9 ± 0.04	1.62 ± 0.03	1.42 ± 0.03	1.25 ± 0.03	1.1 ± 0.02
x1 = 0.2399	2.04 ± 0.04	1.78 ± 0.04	1.555 ± 0.033	1.35 ± 0.03	1.204 ± 0.026	1.07 ± 0.02	0.96 ± 0.02
x1 = 0.3499	1.5 ± 0.03	1.33 ± 0.03	1.18 ± 0.03	1.05 ± 0.02	0.945 ± 0.02	0.858 ± 0.019	0.78 ± 0.02
x1 = 0.44	1.16 ± 0.03	1.04 ± 0.02	0.94 ± 0.02	0.85 ± 0.02	0.778 ± 0.017	0.71 ± 0.02	0.65 ± 0.02
x1 = 0.56	0.84 ± 0.02	0.76 ± 0.02	0.7 ± 0.02	0.644 ± 0.014	0.592 ± 0.013	0.544 ± 0.012	0.494 ± 0.011
x1 = 0.6501	0.68 ± 0.02	0.629 ± 0.014	0.577 ± 0.013	0.53 ± 0.01	0.489 ± 0.011	0.446 ± 0.01	0.41 ± 0.01
x1 = 0.74	0.552 ± 0.012	0.506 ± 0.012	0.466 ± 0.011	0.435 ± 0.01	0.4 ± 0.01	0.367 ± 0.009	0.34 ± 0.01
x1 = 0.8497	0.45 ± 0.01	0.416 ± 0.01	0.387 ± 0.009	0.36 ± 0.01	0.335 ± 0.008	0.311 ± 0.008	0.285 ± 0.007
x1 = 0.9397	0.368 ± 0.009	0.346 ± 0.008	0.325 ± 0.008	0.304 ± 0.008	0.285 ± 0.007	0.268 ± 0.007	0.25 ± 0.01
x2 = 0.0189	0.332 ± 0.008	0.316 ± 0.008	0.3 ± 0.01	0.283 ± 0.007	0.268 ± 0.007	0.254 ± 0.007	0.24 ± 0.01

C[C@@H]1CC[C@@H]2C[C@H]1C2(C)C + C[C@H]1CC[C@@H]2C[C@H]1C2(C)C
100 kPa, x2 = 0.9048
Settings	viscosity [mPa·s]
293.15 K	2.24 ± 0.13
298.15 K	2.023 ± 0.13
303.15 K	1.838 ± 0.13
308.15 K	1.679 ± 0.13
313.15 K	1.538 ± 0.13
318.15 K	1.415 ± 0.13
323.15 K	1.308 ± 0.13

— the CheMixHub viscosity set
